Values of other authors, collected in publication PMC12483202, “Pharmacokinetic profile of oral firocoxib in the koala (Phascolarctos cinereus)” (PLOS One, 2025).
Where two headings read alike, the source gives them in different places.

Columns and labels:
[1] = design: method as in ref [5] of S9 Table; conditions: Camels (5); IV 0.1 mg/kg; ref [5] of S9 Table; cited from earlier work
[2] = design: method as in ref [6] of S9 Table; conditions: Pigs (7); PO 4.0 mg/kg; ref [6] of S9 Table; cited from earlier work

For `CC1(C)OC(=O)C(OCC2CC2)=C1c1ccc(S(C)(=O)=O)cc1` [firocoxib], the t1/2 [1] is given as 5.75 h, the Cmax [2] is given as 60 ng/mL and the Tmax [2] is given as 7.41 h. For the same compound, the t1/2 [2] was 24.075 h.
